One may read the IC50 as the concentration that inhibits the measured activity by half. Low readings indicate greater potency in that assay, high ones weaker potency in that assay. Usually inhibition stands for the percentage by which the read-out fell short of the control. For orientation: half-life means the time in which the quantity being followed falls by half. A word on the Cmax: it is the peak of the concentration-time curve. One may read the bioavailability as dose-corrected exposure relative to a reference, in per cent. The low end stands for little systemic uptake, the high end for much systemic uptake.

Consider 15 compounds from ChEMBL document CHEMBL4616693, “Identification of Inhibitors of Thrombospondin 1 Activation of TGF-β” (ACS Med Chem Lett, 2020).

Peptide text beside a SMILES is read from it. A value given as a limit tells only on which side of the number the result lay.

For data set [1], the target named is T1, Thrombospondin-1 (Homo sapiens, UniProt P07996). Briefly: Inhibition of TSP1 in human myeloma cells assessed reduction in TGFbeta activity incubated for 1 hr by ELISA. The format is cell-based. For orientation: ELISA stands for enzyme-linked immunosorbent assay.
Target sequence in this assay (P07996 whole entry): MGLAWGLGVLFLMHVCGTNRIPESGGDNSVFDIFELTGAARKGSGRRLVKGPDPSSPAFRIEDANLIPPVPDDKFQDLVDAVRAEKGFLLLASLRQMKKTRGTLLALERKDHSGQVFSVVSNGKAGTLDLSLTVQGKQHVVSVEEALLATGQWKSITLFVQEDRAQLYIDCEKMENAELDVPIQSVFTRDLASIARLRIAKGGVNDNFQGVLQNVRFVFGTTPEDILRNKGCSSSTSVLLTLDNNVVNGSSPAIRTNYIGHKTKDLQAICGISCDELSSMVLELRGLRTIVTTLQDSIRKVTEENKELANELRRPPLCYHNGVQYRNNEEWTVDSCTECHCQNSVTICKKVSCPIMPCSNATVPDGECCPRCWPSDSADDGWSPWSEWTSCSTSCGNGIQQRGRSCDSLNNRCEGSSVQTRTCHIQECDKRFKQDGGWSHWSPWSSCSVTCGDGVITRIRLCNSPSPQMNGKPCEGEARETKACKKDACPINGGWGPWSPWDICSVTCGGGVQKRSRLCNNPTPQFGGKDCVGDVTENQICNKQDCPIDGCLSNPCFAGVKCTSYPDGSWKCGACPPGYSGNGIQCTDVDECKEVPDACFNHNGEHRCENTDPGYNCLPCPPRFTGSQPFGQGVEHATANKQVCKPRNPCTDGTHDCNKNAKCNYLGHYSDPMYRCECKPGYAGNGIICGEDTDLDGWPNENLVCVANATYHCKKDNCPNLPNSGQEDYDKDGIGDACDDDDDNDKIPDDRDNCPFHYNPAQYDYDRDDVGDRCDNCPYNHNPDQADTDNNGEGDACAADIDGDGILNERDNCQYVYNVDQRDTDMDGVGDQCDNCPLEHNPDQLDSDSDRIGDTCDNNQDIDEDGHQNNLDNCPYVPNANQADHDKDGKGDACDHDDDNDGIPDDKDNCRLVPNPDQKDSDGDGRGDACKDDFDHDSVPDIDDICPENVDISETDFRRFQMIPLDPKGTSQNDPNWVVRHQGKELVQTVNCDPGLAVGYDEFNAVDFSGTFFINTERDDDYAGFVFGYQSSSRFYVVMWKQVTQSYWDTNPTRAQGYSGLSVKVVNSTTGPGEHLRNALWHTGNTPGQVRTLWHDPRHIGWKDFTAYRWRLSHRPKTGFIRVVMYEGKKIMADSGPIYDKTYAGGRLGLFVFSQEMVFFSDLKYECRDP
Data set [2] in a line: Plasma concentration in CD1 mouse at 1 mg/kg, iv or 5 mg/kg, po measured after 2 hrs by LC-MS/MS analysis. The format is ADME, organism-based.
The target in data set [3] is T1, Thrombospondin-1. Briefly: Inhibition of recombinant human TSP1 P123 expressed in baculovirus system binding to recombinant human LAP at 10 nM preincubated for 10 mins followed by recombinant human LAP addition and measured after 2 hrs by ELISA relative to control.
Target sequence in this assay (P07996 19-1170 limits assumed): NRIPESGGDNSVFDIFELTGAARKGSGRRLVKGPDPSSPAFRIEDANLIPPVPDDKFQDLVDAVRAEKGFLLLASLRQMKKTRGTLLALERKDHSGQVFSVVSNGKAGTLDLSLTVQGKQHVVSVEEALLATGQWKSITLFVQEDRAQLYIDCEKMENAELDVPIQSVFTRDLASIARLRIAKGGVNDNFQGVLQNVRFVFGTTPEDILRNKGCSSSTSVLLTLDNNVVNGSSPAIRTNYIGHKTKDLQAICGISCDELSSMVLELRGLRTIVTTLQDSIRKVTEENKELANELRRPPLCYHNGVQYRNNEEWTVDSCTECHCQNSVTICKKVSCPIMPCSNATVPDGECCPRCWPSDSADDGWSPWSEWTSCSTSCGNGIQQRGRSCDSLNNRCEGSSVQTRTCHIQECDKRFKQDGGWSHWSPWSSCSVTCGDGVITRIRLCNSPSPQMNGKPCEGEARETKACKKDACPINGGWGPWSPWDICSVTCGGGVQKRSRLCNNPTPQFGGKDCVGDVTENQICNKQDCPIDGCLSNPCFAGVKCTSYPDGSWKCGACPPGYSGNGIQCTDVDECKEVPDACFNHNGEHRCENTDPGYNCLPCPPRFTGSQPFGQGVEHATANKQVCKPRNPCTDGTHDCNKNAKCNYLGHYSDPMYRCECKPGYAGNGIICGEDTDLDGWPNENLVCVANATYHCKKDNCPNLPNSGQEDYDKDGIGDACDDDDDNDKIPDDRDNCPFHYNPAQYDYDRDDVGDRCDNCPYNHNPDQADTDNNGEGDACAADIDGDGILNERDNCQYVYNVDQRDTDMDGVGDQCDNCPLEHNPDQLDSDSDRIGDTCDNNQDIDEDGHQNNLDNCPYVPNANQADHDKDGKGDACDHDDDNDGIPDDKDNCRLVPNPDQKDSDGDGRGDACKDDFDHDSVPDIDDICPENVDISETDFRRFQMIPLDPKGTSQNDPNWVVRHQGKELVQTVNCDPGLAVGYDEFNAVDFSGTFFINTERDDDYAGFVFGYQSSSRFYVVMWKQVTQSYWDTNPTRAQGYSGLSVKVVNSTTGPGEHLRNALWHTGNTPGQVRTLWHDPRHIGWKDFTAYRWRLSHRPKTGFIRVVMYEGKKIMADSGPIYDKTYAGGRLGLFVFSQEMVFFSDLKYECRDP
Data set [4] is described as follows: Half life in CD1 mouse at 1 mg/kg, iv by LC-MS/MS analysis. Type of data set: ADME, organism-based. The following applies: in vivo.
Data set [5] in a line: Plasma concentration in CD1 mouse at 1 mg/kg, iv or 5 mg/kg, po measured after 1 hr by LC-MS/MS analysis. The format is ADME, organism-based.
The nature of data set [6]: Microsomal stability in rat liver microsomes assessed as half life measured after 45 mins in presence of NADPH by LC-MS/MS analysis. The format is ADME, Microsome.
The nature of data set [7]: Cmax in ip dosed CD1 mouse measured after 0.25 hrs by LC-MS/MS analysis. The format is ADME, organism-based. More on the design: route intraperitoneal. The following applies: in vivo.
The nature of data set [8]: Microsomal stability in human liver microsomes assessed as half life measured after 45 mins in presence of NADPH by LC-MS/MS analysis. The format is ADME, Microsome. On the technique in general: Liver microsomes are vesicles of endoplasmic reticulum, rich in cytochrome P450 enzymes.
The nature of data set [9]: Oral bioavailability in CD1 mouse at 5 mg/kg by LC-MS/MS analysis. The format is ADME, organism-based. The following applies: in vivo.
Data set [10] in a line: Half life in ip dosed CD1 mouse by LC-MS/MS analysis. Type of data set: ADME, organism-based. As to conditions: in vivo.

Consider `CNC(=O)[C@H](CC(C)C)NC(=O)[C@@H](CCCCN)NC(=O)[C@@H](NC(C)=O)[C@@H](C)O`, for which the IC50 against Thrombospondin-1 [1] was 2.88 nM. As for `CC(=O)N[C@@H](CCCN)C(=O)NC(C)(C)C(N)=O`, the concentration at 2 h in [2] was 2.1 µM. Moreover, the inhibition on Thrombospondin-1 [3] is 85%. The half-life was 0.2 h in data set [4], 2.83 h in [6], over 5 h in data set [8] and 7 h in [10]. Moreover, the concentration at 1 h in data set [5] stood at 11.6 µM. In addition, the Cmax in [7] was 19400 ng/mL. In addition, on Thrombospondin-1 [1], the IC50 is 7.59 nM. Further, the bioavailability in [9] was 9%. In the case of `CC(=O)N[C@@H](CC(N)=O)C(=O)N[C@@H](CCCCN)C(=O)N[C@@H](CC(C)C)C(N)=O` (Ac-Asn-Lys-Leu-NH2), at Thrombospondin-1 [1], it took 9.55 nM to reach half-maximal inhibition (IC50). With `CC(=O)NCC(=O)N[C@@H](CCCCN)C(=O)N[C@@H](CC(C)C)C(N)=O` (Ac-Gly-Lys-Leu-NH2), the 50% inhibitory concentration (IC50) against Thrombospondin-1 [1] was 14.1 nM. The same measure, in the same setting: the value for `CC(=O)NCCCC[C@H](NC(=O)[C@H](CO)NC(C)=O)C(=O)N[C@@H](CC(C)C)C(N)=O` (Ac-Ser-Lys(Ac)-Leu-NH2) was 15.1 nM. Consider `CC(=O)N[C@@H](CO)C(=O)N[C@@H](CCCCN)C(=O)N[C@@H](CC(C)C)C(N)=O` (Ac-Ser-Lys-Leu-NH2), for which the inhibition at Thrombospondin-1 [3] was found to be 85%. For the same compound, the half-life in data set [4] was 1.9 h. The compound also gave an IC50 on Thrombospondin-1 [1] of 5.25 nM. As to `CCC(=O)N[C@@H](CO)C(=O)N[C@@H](CCCCN)C(=O)N[C@@H](CC(C)C)C(N)=O` (HELM PEPTIDE1{[CCC(=O)[*:2]].S.K.L.[am]}$$$$V2.0), the IC50 against Thrombospondin-1 [1] is 13.5 nM.

For the compound `CC(=O)N[C@@H](CO)C(=O)N[C@@H](CCCCN)C(=O)N[C@@H](CC(C)C)C(=O)N(C)C` (HELM PEPTIDE1{[ac].S.K.L.[CN(C)[*:1]]}$$$$V2.0), at Thrombospondin-1 [1], half-maximal inhibition (IC50) was put at 3.31 nM. Same read-out and setting: the result for `CC(=O)N[C@@H](CO)C(=O)N[C@@H](CCCCN)C(=O)N[C@H](CC(C)C)C(N)=O` (HELM PEPTIDE1{[ac].S.K.[dL].[am]}$$$$V2.0) reads 2 nM; that for `CC(=O)N[C@@H](CO)C(=O)N[C@@H](CCCCN)C(=O)N(C)[C@@H](CC(C)C)C(N)=O` (HELM PEPTIDE1{[ac].S.K.[meL].[am]}$$$$V2.0), 2.24 nM. Same read-out and setting: the result for `CC(=O)N[C@@H](CO)C(=O)N[C@@H](CCCCN(C)C)C(=O)N[C@@H](CC(C)C)C(N)=O` (HELM PEPTIDE1{[ac].S.[CN(C)CCCC[C@H](N[*:1])C(=O)[*:2]].L.[am]}$$$$V2.0) reads 1.51 nM. In the case of `CNCCCC[C@H](NC(=O)[C@H](CO)NC(C)=O)C(=O)N[C@@H](CC(C)C)C(N)=O` (HELM PEPTIDE1{[ac].S.[CNCCCC[C@H](N[*:1])C(=O)[*:2]].L.[am]}$$$$V2.0), on Thrombospondin-1 [1], the IC50 is 4.37 nM. As to `CC(=O)N[C@@H](CO)C(=O)N[C@@H](CCCN)C(=O)NC(C)(C)C(N)=O` (HELM PEPTIDE1{[ac].S.[Orn].[Aib].[am]}$$$$V2.0), on Thrombospondin-1 [3], the inhibition was 34%. `CC(=O)N[C@@H](CO)C(=O)N[C@H](CCCCN)C(=O)N[C@@H](CC(C)C)C(N)=O` (HELM PEPTIDE1{[ac].S.[dK].L.[am]}$$$$V2.0) had a 50% inhibitory concentration (IC50) against Thrombospondin-1 [1] of 1.7 nM.

The compound `CC(=O)N[C@H](CO)C(=O)N[C@@H](CCCCN)C(=O)N[C@@H](CC(C)C)C(N)=O` (HELM PEPTIDE1{[ac].[dS].K.L.[am]}$$$$V2.0) gave an IC50 against Thrombospondin-1 [1] of 0.38 nM.
